Results reported in BindingDB's records for doi:10.1016/S0960-894X(01)80152-9 (1994).

How the values were obtained:
[1] = target: Arachidonate 5-lipoxygenase (Cavia porcellus); experiment: In vitro 5-lipoxygenase inhibition in guinea pig PMNs was determined based on 5-hydroxyeicosapentaenoic acid (5-HETE) production
[2] = target: Arachidonate 5-lipoxygenase (Cavia porcellus); experiment: In vitro 5-lipoxygenase inhibition in guinea pig PMNs was determined based on LTB4 production

SMILES	IC50 [1]	IC50 [2]
NC(=O)N(O)CC1=Cc2cc(Oc3ccccc3)ccc2SCC1 [N-hydroxy-N-[(7-phenoxy-2,3-dihydro-1-benzothiepin-4-yl)methyl]urea]	120 nM	130 nM
NC(=O)N(O)CC1=Cc2cc(Oc3ccc(F)cc3)ccc2OCC1 [N-{[7-(4-fluorophenoxy)-2,3-dihydro-1-benzoxepin-4-yl]methyl}-N-hydroxyurea]	91 nM	98 nM
NC(=O)N(O)CC1=Cc2cc(Oc3ccccc3)ccc2OCC1 [N-hydroxy-N-[(7-phenoxy-2,3-dihydro-1-benzoxepin-4-yl)methyl]urea]	89 nM	91 nM
CNC(=O)N(O)CC1=Cc2cc(Oc3ccc(F)cc3)ccc2OCC1 [N-{[7-(4-fluorophenoxy)-2,3-dihydro-1-benzoxepin-4-yl]methyl}-N-hydroxy-N'-methylurea]	100 nM	130 nM
NC(=O)N(O)CC1=Cc2ccc(Oc3ccccc3)cc2OCC1 [N-hydroxy-N-[(8-phenoxy-2,3-dihydro-1-benzoxepin-4-yl)methyl]urea]	180 nM	210 nM
